Values joined by “and” are separate entries in the source; they are usually repeats but may differ in a detail not shown here. Identical values can stand only once. Toxic doses and inconclusive results are not listed. How the source made its calls: active means survival T/C of 150% or more; inactive means T/C below 125% in these data.
Test system: CD2F1 mice, L1210 leukemia ip, survival T/C
Test: NCI In Vivo Anticancer Drug Screen. Data for tumor model L1210 Leukemia (intraperitoneal) in CD2F1 (CDF1) mice
Conditions: higher = longer survival
Method in brief: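 Read-out first: treated-group measurement over vehicle-control measurement, expressed as a ratio. Animals bore a transplanted tumor line and were dosed with compound or vehicle.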

[1] = endpoint: mean survival time, dose: 100.0 mg/kg/injection, schedule: Q01DX009 (ip), vehicle: saline with Tween-80
[2] = endpoint: mean survival time, dose: 200.0 mg/kg/injection, schedule: Q01DX009 (ip), vehicle: saline with Tween-80
[3] = endpoint: mean survival time, dose: 400.0 mg/kg/injection, schedule: Q01DX009 (ip), vehicle: saline with Tween-80
[4] = endpoint: mean survival time, dose: 200.0 mg/kg/injection, schedule: Q04DX003 (ip), vehicle: saline with Tween-80
[5] = endpoint: mean survival time, dose: 100.0 mg/kg/injection, schedule: Q04DX003 (ip), vehicle: saline with Tween-80
[6] = endpoint: mean survival time, dose: 400.0 mg/kg/injection, schedule: Q04DX003 (ip), vehicle: saline with Tween-80
[7] = endpoint: mean survival time, dose: 50.0 mg/kg/injection, schedule: Q01DX009 (ip), vehicle: saline with Tween-80
[8] = endpoint: mean survival time, dose: 12.5 mg/kg/injection, schedule: Q01DX009 (ip), vehicle: other
[9] = endpoint: mean survival time, dose: 25.0 mg/kg/injection, schedule: Q01DX009 (ip), vehicle: other
[10] = endpoint: mean survival time, dose: 50.0 mg/kg/injection, schedule: Q01DX009 (ip), vehicle: other

Measured: T/C

Cn1c(Cl)nc2c(Cl)nc(Cl)nc21
inactive: endpoint: mean survival time, dose: 50.0 mg/kg/injection, schedule: Q04DX003 (ip), vehicle: Klucel (hydroxypropylcellulose) (HPC) 100 % of control | endpoint: mean survival time, dose: 100.0 mg/kg/injection, schedule: Q04DX003 (ip), vehicle: Klucel (hydroxypropylcellulose) (HPC) 104 % of control

CN(C)c1ncnc2c1cnn2C1OC(CO)C(O)C1O (configuration not stated)
inactive: endpoint: mean survival time, dose: 12.5 mg/kg/injection, schedule: Q01DX005 (ip), vehicle: water 93 % of control | endpoint: mean survival time, dose: 25.0 mg/kg/injection, schedule: Q01DX005 (ip), vehicle: water 90 % of control | endpoint: mean survival time, dose: 50.0 mg/kg/injection, schedule: Q01DX005 (ip), vehicle: water 107 % of control | endpoint: mean survival time, dose: 100.0 mg/kg/injection, schedule: Q01DX005 (ip), vehicle: water 100 % of control | endpoint: mean survival time, dose: 200.0 mg/kg/injection, schedule: Q01DX005 (ip), vehicle: water 100 % of control

CC(=O)Nc1nc(/C=C\c2ccc([N+](=O)[O-])cc2)c(CCCCc2ccccc2)c(=O)[nH]1
inactive: endpoint: mean survival time, dose: 3.13 mg/kg/injection, schedule: Q01DX001 (ip), vehicle: saline with Tween-80 98 % of control | endpoint: mean survival time, dose: 6.25 mg/kg/injection, schedule: Q01DX001 (ip), vehicle: saline with Tween-80 96 % of control | endpoint: mean survival time, dose: 12.5 mg/kg/injection, schedule: Q01DX001 (ip), vehicle: saline with Tween-80 98 % of control

Clc1ccc(-c2cc(-c3ccc(Cl)cc3)cc(-c3ccc(Cl)cc3)c2)cc1
inactive: [1] 101 % of control | [2] 106 % of control | [3] 105 % of control

C(=Nc1ccccc1)c1ccc(-c2ccccc2)cc1
inactive: [1] 95 % of control | endpoint: mean survival time, dose: 100.0 mg/kg/injection, schedule: Q04DX003 (ip), vehicle: saline sonified 97 % of control | [2] 98 % of control | endpoint: mean survival time, dose: 200.0 mg/kg/injection, schedule: Q04DX003 (ip), vehicle: saline sonified 101 % of control | [3] 108 % of control | endpoint: mean survival time, dose: 400.0 mg/kg/injection, schedule: Q04DX003 (ip), vehicle: saline sonified 94 % of control

CC(C)CCC(=O)c1ccoc1
inactive: endpoint: median survival time, dose: 0.12 mg/kg/injection, schedule: Q03HX015 (ip), vehicle: saline with Tween-80 100 % of control | endpoint: median survival time, dose: 0.25 mg/kg/injection, schedule: Q03HX015 (ip), vehicle: saline with Tween-80 103 % of control | endpoint: median survival time, dose: 0.5 mg/kg/injection, schedule: Q03HX015 (ip), vehicle: saline with Tween-80 101 % of control | endpoint: median survival time, dose: 1.0 mg/kg/injection, schedule: Q03HX015 (ip), vehicle: saline with Tween-80 100 % of control | endpoint: median survival time, dose: 2.0 mg/kg/injection, schedule: Q03HX015 (ip), vehicle: saline with Tween-80 96 % of control

O=C(/C=C/C=C/c1ccccc1)c1ccc(Cl)cc1
inactive: endpoint: mean survival time, dose: 37.5 mg/kg/injection, schedule: Q04DX003 (ip), vehicle: saline with Tween-80 97 % of control | endpoint: mean survival time, dose: 75.0 mg/kg/injection, schedule: Q04DX003 (ip), vehicle: saline with Tween-80 97 % of control | endpoint: mean survival time, dose: 150.0 mg/kg/injection, schedule: Q04DX003 (ip), vehicle: saline with Tween-80 89 % of control | [4] 90 % of control | endpoint: mean survival time, dose: 300.0 mg/kg/injection, schedule: Q04DX003 (ip), vehicle: saline with Tween-80 93 % of control

CC(C)N(C(C)C)S(=O)(=O)c1ccccc1C(O)(c1ccccc1)c1ccccc1
inactive: [1] 92 % of control | [5] 94 % of control | [4] 96 % of control | [6] 89 % of control

O[Si](O)([O][Sn]([c]1ccccc1)([c]1ccccc1)[c]1ccccc1)[O][Sn]([c]1ccccc1)([c]1ccccc1)[c]1ccccc1
inactive: endpoint: mean survival time, dose: 0.39 mg/kg/injection, schedule: Q01DX009 (ip), vehicle: saline 94 % of control | endpoint: mean survival time, dose: 0.78 mg/kg/injection, schedule: Q01DX009 (ip), vehicle: saline 94 % of control | endpoint: mean survival time, dose: 1.56 mg/kg/injection, schedule: Q01DX009 (ip), vehicle: saline 105 % of control | endpoint: mean survival time, dose: 6.25 mg/kg/injection, schedule: Q01DX009 (ip), vehicle: saline 106 % of control | endpoint: mean survival time, dose: 12.5 mg/kg/injection, schedule: Q01DX009 (ip), vehicle: saline 100 % of control

Cc1ccccc1NC(=O)Oc1cccc(OC(=O)c2ccccc2)c1
inactive: endpoint: mean survival time, dose: 100.0 mg/kg/injection, schedule: Q04DX002 (ip), vehicle: saline with Tween-80 103 % of control | endpoint: mean survival time, dose: 200.0 mg/kg/injection, schedule: Q04DX002 (ip), vehicle: saline with Tween-80 103 % of control | endpoint: mean survival time, dose: 400.0 mg/kg/injection, schedule: Q04DX002 (ip), vehicle: saline with Tween-80 91 % of control

CC(=O)C(CN(C)C)C(C)=O
inactive: endpoint: mean survival time, dose: 75.0 mg/kg/injection, schedule: Q01DX001 (ip), vehicle: other 106 % of control | endpoint: mean survival time, dose: 150.0 mg/kg/injection, schedule: Q01DX001 (ip), vehicle: other 106 % of control

CC(=O)OCC(COC(C)=O)(COC(C)=O)COC(C)=O
inactive: [1] 97 % of control | [5] 100 % of control | [2] 97 % of control | [4] 96 % of control | [3] 98 % of control | [6] 93 % of control

Cc1c(C)c(C)c(CCl)c(C)c1C
inactive: [7] 103 % of control | [1] 103 % of control

O=C(c1ccccc1)N(C(=O)c1ccccc1)C1CCCCC1
inactive: [5] 100 % of control | [4] 94 % of control | [6] 93 % of control

O=C(O)c1c2c(nc3ccccc13)-c1cccc3c1N(CCC3)C2
inactive: endpoint: mean survival time, dose: 6.25 mg/kg/injection, schedule: Q01DX009 (ip), vehicle: other 100 % of control | [8] 103 % of control | [9] 103 % of control | [10] 100 % of control | endpoint: mean survival time, dose: 100.0 mg/kg/injection, schedule: Q01DX001 (ip), vehicle: other 100 % of control | endpoint: mean survival time, dose: 200.0 mg/kg/injection, schedule: Q01DX001 (ip), vehicle: other 97 % of control | endpoint: mean survival time, dose: 400.0 mg/kg/injection, schedule: Q01DX001 (ip), vehicle: other 97 % of control

Oc1ccccc1-c1ccccc1
inactive: [7] 98 % of control | [1] 98 % of control | [2] 98 % of control

CCCCCCCCC[n+]1cccc(C(N)=O)c1
inactive: endpoint: mean survival time, dose: 25.0 mg/kg/injection, schedule: Q01DX009 (ip), vehicle: saline with Tween-80 97 % of control | [7] 101 % of control | [1] 95 % of control

COC(OC)C1C2C3C=CC(C4C(=O)OC(=O)C34)C12 (configuration not stated)
inactive: [1] 98 % of control | [5] 97 % of control | [2] 93 % of control | [4] 110 % of control | [3] 95 % of control | [6] 103 % of control

CC1(C)CCC23CCC4(C)C(CCC5C6(C)CCC(O)C(C)(C)C6CCC54C)C2C1OC3=O (configuration not stated)
inactive: endpoint: mean survival time, dose: 6.25 mg/kg/injection, schedule: Q04DX002 (ip), vehicle: saline with Tween-80 100 % of control | endpoint: mean survival time, dose: 12.5 mg/kg/injection, schedule: Q04DX002 (ip), vehicle: saline with Tween-80 103 % of control | endpoint: mean survival time, dose: 25.0 mg/kg/injection, schedule: Q04DX002 (ip), vehicle: saline with Tween-80 88 % of control and 103 % of control

c1cc[n+](CC[n+]2ccccc2)cc1
inactive: endpoint: mean survival time, dose: 100.0 mg/kg/injection, schedule: Q04DX003 (ip), vehicle: saline 102 % of control | endpoint: mean survival time, dose: 200.0 mg/kg/injection, schedule: Q04DX003 (ip), vehicle: saline 100 % of control | endpoint: mean survival time, dose: 400.0 mg/kg/injection, schedule: Q04DX003 (ip), vehicle: saline 111 % of control

O=C1NCCN1c1ccccc1[N+](=O)[O-]
inactive: [8] 96 % of control | [9] 91 % of control | [10] 96 % of control | endpoint: mean survival time, dose: 100.0 mg/kg/injection, schedule: Q01DX009 (ip), vehicle: other 108 % of control | endpoint: mean survival time, dose: 200.0 mg/kg/injection, schedule: Q01DX009 (ip), vehicle: other 101 % of control

CC(O)c1cc2ccccc2n1C (configuration not stated)
inactive: endpoint: mean survival time, dose: 100.0 mg/kg/injection, schedule: Q01DX001 (ip), vehicle: saline with Tween-80 98 % of control | endpoint: mean survival time, dose: 200.0 mg/kg/injection, schedule: Q01DX001 (ip), vehicle: saline with Tween-80 103 % of control | endpoint: mean survival time, dose: 400.0 mg/kg/injection, schedule: Q01DX001 (ip), vehicle: saline with Tween-80 101 % of control
